Source: the supplement of paper PMC8617591

How the values were obtained:
[1] = tested on: Mycobacterium tuberculosis Erdman (autoluminescent); assay: total FIC50 (Loewe) at 50% inhibition, three-drug combination (log2); higher = more antagonistic
Description: (§1)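 DiaMOND equipotent three-drug combination dose responses (10 doses, 1.5- or 2-fold spacing, centred on IC90) against autoluminescent M. tuberculosis Erdman in 8 in vitro models. Read-out is OD600, or luminescence for the intracellular and dormancy models, normalised to untreated wells. Hill-fit Einf, AUC25 and GRinf are potency metrics; FIC50 and FIC90 are total Loewe fractional inhibitory concentrations as log2 (negative = synergy).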

[2] = tested on: Mycobacterium tuberculosis Erdman (autoluminescent); assay: total FIC90 (Loewe) at 90% inhibition, three-drug combination (log2); higher = more antagonistic
Description: as §1

[3] = tested on: Mycobacterium tuberculosis Erdman (autoluminescent); assay: Einf, fitted maximum growth inhibition of three-drug combination (fraction); higher = stronger maximal inhibition
Description: as §1

[4] = tested on: Mycobacterium tuberculosis Erdman (autoluminescent); assay: AUC25, normalised area under dose response up to IC25 (three-drug combination) (fraction (0-1)); higher = more potent at low dose
Description: as §1

[5] = tested on: Mycobacterium tuberculosis Erdman (autoluminescent); assay: GRinf, maximum normalised growth rate inhibition (three-drug combination) (unitless (-1 to 1)); higher = less effect (negative = killing)
Description: as §1

[6] = in vitro model: acidic pH 5.7, time point: constant (~7 days, model-specific)
[7] = in vitro model: acidic pH 5.7, time point: terminal (~4-5 doublings, model-specific)
[8] = in vitro model: butyrate, time point: constant (~7 days, model-specific)
[9] = in vitro model: butyrate, time point: terminal (~4-5 doublings, model-specific)
[10] = in vitro model: cholesterol 0.05 mM, time point: constant (~7 days, model-specific)
[11] = in vitro model: cholesterol 0.05 mM, time point: terminal (~4-5 doublings, model-specific)
[12] = in vitro model: cholesterol-high 0.2 mM, time point: constant (~7 days, model-specific)
[13] = in vitro model: cholesterol-high 0.2 mM, time point: terminal (~4-5 doublings, model-specific)
[14] = in vitro model: dormancy (butyrate + nitrate, low O2), time point: constant (~7 days, model-specific)
[15] = in vitro model: dormancy (butyrate + nitrate, low O2), time point: terminal (~4-5 doublings, model-specific)
[16] = in vitro model: standard 7H9 glycerol, time point: constant = terminal
[17] = in vitro model: valerate, time point: constant (~7 days, model-specific)
[18] = in vitro model: valerate, time point: terminal (~4-5 doublings, model-specific)
[19] = in vitro model: intracellular J774, time point: constant = terminal

What does the source list for COc1nc2ccc(Br)cc2cc1[C@@H](c1ccccc1)[C@@](O)(CCN(C)C)c1cccc2ccccc12 [bedaquiline] + COc1c(N2C[C@@H]3CCCN[C@@H]3C2)c(F)cc2c(=O)c(C(=O)O)cn(C3CC3)c12 [moxifloxacin] + CO[C@H]1/C=C/O[C@@]2(C)Oc3c(C)c(O)c4c(O)c(c(/C=N/N5CCN(C6CCCC6)CC5)c(O)c4c3C2=O)NC(=O)/C(C)=C\C=C\[C@H](C)[C@H](O)[C@@H](C)[C@@H](O)[C@@H](C)[C@H](OC(C)=O)[C@@H]1C [rifapentine]?
total FIC50 [1, 6]: 0.823; total FIC50 [1, 7]: 1.07; total FIC50 [1, 8]: 0.844; total FIC50 [1, 9]: 0.876; total FIC50 [1, 10]: 0.531; total FIC50 [1, 11]: 0.923; total FIC50 [1, 12]: 0.723; total FIC50 [1, 13]: 0.949; total FIC50 [1, 14]: 0.868; total FIC50 [1, 15]: 1.05; total FIC50 [1, 16]: 0.73; total FIC50 [1, 17]: 1.01; total FIC50 [1, 18]: 0.995; total FIC90 [2, 7]: 0.708; total FIC90 [2, 8]: 0.676; total FIC90 [2, 9]: 0.991; total FIC90 [2, 11]: 0.462; total FIC90 [2, 12]: 0.4; total FIC90 [2, 13]: 0.645; total FIC90 [2, 14]: 1.67; total FIC90 [2, 15]: 1.35; total FIC90 [2, 19]: 0.946; total FIC90 [2, 16]: 0.338; total FIC90 [2, 18]: 0.711; Einf [3, 6]: 0.851; Einf [3, 7]: 0.994; Einf [3, 8]: 0.952; Einf [3, 9]: 0.977; Einf [3, 10]: 0.716; Einf [3, 11]: 0.905; Einf [3, 12]: 0.949; Einf [3, 13]: 1; Einf [3, 14]: 0.928; Einf [3, 15]: 0.997; Einf [3, 19]: 0.932; Einf [3, 16]: 0.966; Einf [3, 17]: 0.915; Einf [3, 18]: 0.946; AUC25 [4, 6]: 0.0678; AUC25 [4, 7]: 0.0653; AUC25 [4, 8]: 0.1; AUC25 [4, 9]: 0.0773; AUC25 [4, 10]: 0.0837; AUC25 [4, 11]: 0.0604; AUC25 [4, 12]: 0.0607; AUC25 [4, 13]: 0.0498; AUC25 [4, 14]: 0.0857; AUC25 [4, 15]: 0.0736; AUC25 [4, 16]: 0.0761; AUC25 [4, 17]: 0.063; AUC25 [4, 18]: 0.0335; GRinf [5, 6]: -0.0721; GRinf [5, 7]: -0.308; GRinf [5, 8]: -0.132; GRinf [5, 9]: -0.0985; GRinf [5, 10]: -0.256; GRinf [5, 11]: -0.183; GRinf [5, 12]: -0.394; GRinf [5, 13]: -0.57; GRinf [5, 14]: 0.0745; GRinf [5, 15]: -0.28; GRinf [5, 19]: -0.235; GRinf [5, 16]: -0.0766; GRinf [5, 17]: -0.117; GRinf [5, 18]: -0.0711

Which “total FIC50” value [1, 6] does the source give for COc1nc2ccc(Br)cc2cc1[C@@H](c1ccccc1)[C@@](O)(CCN(C)C)c1cccc2ccccc12 [bedaquiline] + COc1c(N2C[C@@H]3CCCN[C@@H]3C2)c(F)cc2c(=O)c(C(=O)O)cn(C3CC3)c12 [moxifloxacin] + CO[C@H]1/C=C/O[C@@]2(C)Oc3c(C)c(O)c4c(O)c(c(/C=N/N5CCN(C)CC5)c(O)c4c3C2=O)NC(=O)/C(C)=C\C=C\[C@H](C)[C@H](O)[C@@H](C)[C@@H](O)[C@@H](C)[C@H](OC(C)=O)[C@@H]1C [rifampicin] here?
The value was 0.708.

What about the “total FIC50” value [1, 7] of the same molecule?
Its value is 1.07.

And the “total FIC50” value [1, 8]?
The value was 0.594.

What about the “total FIC50” value [1, 9] of the same molecule?
Its value is 0.573.

What about the “total FIC50” value [1, 10] of the same molecule?
The value was 0.0975.

And the “total FIC50” value [1, 11]?
The value was 1.13.

What about the “total FIC50” value [1, 12] of the same molecule?
Its value is 0.677.

What about the “total FIC50” value [1, 13] of the same molecule?
The value was 0.955.

And the “total FIC50” value [1, 14]?
Its value is 0.688.

And the “total FIC50” value [1, 15]?
The value was 0.97.

What about the “total FIC50” value [1, 16] of the same molecule?
The value was 0.732.

And the “total FIC50” value [1, 17]?
The value was 1.19.

What about the “total FIC50” value [1, 18] of the same molecule?
Its value is 1.1.

What about the “total FIC90” value [2, 7] of the same molecule?
Its value is 0.594.

And the “total FIC90” value [2, 8]?
Its value is 0.579.

What about the “total FIC90” value [2, 9] of the same molecule?
The value was 1.1.

And the “total FIC90” value [2, 11]?
Its value is -0.616.

What about the “total FIC90” value [2, 12] of the same molecule?
The value was 0.0311.

And the “total FIC90” value [2, 13]?
Its value is 0.594.

And the “total FIC90” value [2, 14]?
The value was 0.901.

And the “total FIC90” value [2, 15]?
Its value is 1.03.

What about the “total FIC90” value [2, 19] of the same molecule?
Its value is 0.931.

And the “total FIC90” value [2, 18]?
Its value is 0.726.

And the Einf [3, 6]?
The Einf was 0.833.

And the Einf [3, 7]?
The Einf was 0.98.

What about the Einf [3, 8] of the same molecule?
Its Einf is 0.964.

And the Einf [3, 9]?
Its Einf is 0.99.

What about the Einf [3, 10] of the same molecule?
The Einf was 0.745.

What about the Einf [3, 11] of the same molecule?
The Einf was 0.866.

What about the Einf [3, 12] of the same molecule?
Its Einf is 0.957.

And the Einf [3, 13]?
The Einf was 1.

And the Einf [3, 14]?
Its Einf is 0.925.

And the Einf [3, 15]?
The Einf was 0.982.

And the Einf [3, 19]?
Its Einf is 0.938.

What about the Einf [3, 16] of the same molecule?
The Einf was 0.96.

What about the Einf [3, 17] of the same molecule?
The Einf was 0.884.

What about the Einf [3, 18] of the same molecule?
Its Einf is 0.953.

And the AUC25 [4, 6]?
The AUC25 was 0.0637.

And the AUC25 [4, 7]?
The AUC25 was 0.0621.

What about the AUC25 [4, 8] of the same molecule?
The AUC25 was 0.12.

What about the AUC25 [4, 9] of the same molecule?
The AUC25 was 0.105.

And the AUC25 [4, 10]?
Its AUC25 is 0.0826.

And the AUC25 [4, 11]?
Its AUC25 is 0.074.

What about the AUC25 [4, 12] of the same molecule?
Its AUC25 is 0.057.

What about the AUC25 [4, 13] of the same molecule?
The AUC25 was 0.0547.

And the AUC25 [4, 14]?
The AUC25 was 0.0876.

And the AUC25 [4, 15]?
Its AUC25 is 0.0619.

What about the AUC25 [4, 16] of the same molecule?
Its AUC25 is 0.0774.

And the AUC25 [4, 17]?
The AUC25 was 0.046.

And the AUC25 [4, 18]?
Its AUC25 is 0.0316.

And the GRinf [5, 6]?
Its GRinf is -0.0329.

What about the GRinf [5, 7] of the same molecule?
The GRinf was -0.13.

And the GRinf [5, 8]?
The GRinf was -0.414.

And the GRinf [5, 9]?
The GRinf was -0.247.

And the GRinf [5, 10]?
Its GRinf is -0.166.

And the GRinf [5, 11]?
The GRinf was -0.045.

And the GRinf [5, 12]?
Its GRinf is -0.452.

What about the GRinf [5, 13] of the same molecule?
Its GRinf is -0.61.

And the GRinf [5, 14]?
Its GRinf is 0.215.

And the GRinf [5, 15]?
The GRinf was -0.201.

What about the GRinf [5, 19] of the same molecule?
Its GRinf is -0.427.

And the GRinf [5, 16]?
Its GRinf is -0.141.

And the GRinf [5, 17]?
The GRinf was -0.0825.

What about the GRinf [5, 18] of the same molecule?
The GRinf was -0.044.

What does the source list for COc1nc2ccc(Br)cc2cc1[C@@H](c1ccccc1)[C@@](O)(CCN(C)C)c1cccc2ccccc12 [bedaquiline] + COc1c(N2C[C@@H]3CCCN[C@@H]3C2)c(F)cc2c(=O)c(C(=O)O)cn(C3CC3)c12 [moxifloxacin] + NC(=O)c1cnccn1 [pyrazinamide]?
total FIC50 [1, 6]: 0.0701; total FIC50 [1, 7]: 0.276; total FIC50 [1, 8]: 0.562; total FIC50 [1, 9]: 0.738; total FIC50 [1, 11]: 0.205; total FIC50 [1, 12]: 0.399; total FIC50 [1, 13]: 0.406; total FIC50 [1, 14]: -0.56; total FIC50 [1, 15]: 0.109; total FIC50 [1, 17]: 0.831; total FIC50 [1, 18]: 0.778; total FIC90 [2, 7]: -0.165; total FIC90 [2, 8]: 1.12; total FIC90 [2, 9]: 1.18; total FIC90 [2, 11]: 2.28; total FIC90 [2, 13]: 0.558; total FIC90 [2, 14]: -0.988; total FIC90 [2, 15]: -0.187; total FIC90 [2, 19]: 0.89; total FIC90 [2, 18]: 1.03; Einf [3, 6]: 0.847; Einf [3, 7]: 0.984; Einf [3, 8]: 0.952; Einf [3, 9]: 0.987; Einf [3, 10]: 0.762; Einf [3, 11]: 0.95; Einf [3, 12]: 0.981; Einf [3, 13]: 1; Einf [3, 14]: 0.928; Einf [3, 15]: 0.987; Einf [3, 19]: 0.982; Einf [3, 16]: 0.969; Einf [3, 17]: 0.916; Einf [3, 18]: 0.949; AUC25 [4, 6]: 0.0871; AUC25 [4, 7]: 0.0844; AUC25 [4, 8]: 0.108; AUC25 [4, 9]: 0.0863; AUC25 [4, 10]: 0.113; AUC25 [4, 11]: 0.115; AUC25 [4, 12]: 0.0866; AUC25 [4, 13]: 0.0915; AUC25 [4, 14]: 0.0687; AUC25 [4, 15]: 0.0596; AUC25 [4, 16]: 0.0806; AUC25 [4, 17]: 0.102; AUC25 [4, 18]: 0.06; GRinf [5, 6]: -0.43; GRinf [5, 7]: -0.325; GRinf [5, 8]: -0.798; GRinf [5, 9]: -0.741; GRinf [5, 10]: -0.387; GRinf [5, 11]: -0.419; GRinf [5, 12]: -0.58; GRinf [5, 13]: -0.586; GRinf [5, 14]: 0.247; GRinf [5, 15]: -0.0885; GRinf [5, 19]: -0.385; GRinf [5, 16]: -0.108; GRinf [5, 17]: -0.131; GRinf [5, 18]: -0.0556
